Key:
C57BL/6 mice [1] = assay: Steroid-resistant AAD models (A. niger ± LPS), fluticasone propionate; type: in vivo; settings: A. niger conidia ±30 ng LPS; daily treatment
Method: As shown in the severe eosinophilic and neutrophilic steroid-resistant AAD models of FIGS. 14A-14B, mice challenged with Aspergillus niger (AN) develop an asthma phenotype, here showing airway hyperresponsiveness (AHR), that is steroid (fluticasone propionate; FP, a commonly used steroid in asthma) resistant. Illustrated in FIG. 14A is an experimental timeline for assessing the effect of daily FP or vehicle (liposome: dilauroylphosphatidylcholine: DLPC) treatment on AHR. AHR was measured as a function of respiratory system resistance (RRS(cmH2O·s·ml^−1)) in C57BL/6 mice challenged intranasally (q.o.d.) with 4×10^5 A. niger (AN) conidia ±30 ng lipopolysaccharide (LPS) (FIG. 14B).

Dkk-1 [2] = target: T1, Dkk-1 (Mus musculus, UniProt O54908); assay: C. albicans-induced allergic airway disease in mice given Dkk-1 inhibitor intraperitoneally; type: in vivo, C57BL/6 mice
T1 construct: endogenous in cells; host or cells: C57BL/6 mice (whole animal; Dkk-1 released from platelets into plasma)
T1 sequence (O54908 32-272): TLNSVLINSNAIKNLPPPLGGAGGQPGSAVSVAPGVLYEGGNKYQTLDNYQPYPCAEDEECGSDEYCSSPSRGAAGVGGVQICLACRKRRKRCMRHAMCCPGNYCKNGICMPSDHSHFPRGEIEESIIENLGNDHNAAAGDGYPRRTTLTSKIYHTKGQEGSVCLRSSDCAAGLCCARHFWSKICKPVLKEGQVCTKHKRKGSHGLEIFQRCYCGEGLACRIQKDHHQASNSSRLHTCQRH
Method: The relevance of Dkk-1 to allergic airway disease induced by airway mycosis is unknown. Mice challenged with C. albicans were administered a Dkk-1 inhibitor (WAY 262611) previously shown to block this peptide in vivo (Chae et al., 2016b) (FIG. 2G).
(§1) C57BL/6 mice were administered 1×10^5 viable cells of C. albicans intranasally every other day for 8 challenges as shown in FIG. 1 (Porter et al., 2011a). Alternatively, C57BL/6 mice were given 4, 8, and 16 μmol candidalysin or 16 μmol of scrambled peptide control in PBS every other day for 8 challenges as shown in FIG. 8. Dkk-1 inhibitor (Chae et al., 2016a) (WAY262611, cat: 317700, Millipore Sigma, Burlington, MA. Dose: 10 or 20 μg/kg) and recombinant mouse Dkk-1 (5897-DK-010, R&D systems, Minneapolis, MN. Dose: 5 μg/kg) were given intraperitoneally at the same time and fungal challenge. Mice were analyzed 24 h after the final challenge for allergic airway disease endpoints.
(§2) Bronchial constriction in response to increasing dose of acetylcholine (Ach) injected intravenously, bronchoalveolar lavage fluid (BALF) cell differential counting, Dkk-1 quantitation from plasma, ELISA analysis of whole lung, flow cytometry analysis of Th cells and lung histopathology were assessed in response to C. albicans challenge as previously described (Porter et al., 2011a). Briefly, mice were anesthetized with etomidate and intravenously injected with acetylcholine via tail vein to assess AHR as quantified by measuring respiratory system resistance (RRS). Total BALF cells were collected by lavaging whole lung, total cells were enumerated and differential cell counting was performed on modified Giemsa-stained cytospin preparations. Plasma was harvested by retro-orbital bleeding and anti-coagulated by 10% 0.5M EDTA (Thermofisher scientific, Waltham MA). Lungs were harvested and processed as follows. Lungs were cut into small pieces and incubated in digestion buffer (2 mg/ml collagenase (#LS004177, Worthington), 0.04 mg/ml DNAse (#10104159001, Sigma) 1, 20% FBS in HBSS) for 1 h at 37° C. after which they were deaggregated by pressing through a […] nylon mesh and centrifuged at 400×g for 5 minutes at 4° C. Supernatants were discarded, and 1.5 mL of ACK (Thermofisher scientific, Waltham MA) was added and incubated for 3 min at room temperature for erythrocyte lysis. ACK was then neutralized with 7.5 mL of complete RPMI-1640 (Corning, NY), with 10% FBS and 1% Pen Strep, Gibco, Waltham MA). The resulting leukocyte preparations were centrifuged and prepared for flow cytometry analysis or ELISA.
Cell culture supernatants were analyzed for cytokines by standard ELISA after comparison to recombinant standard. IL-4 (Clone 11B11 and 554390 BD Biosciences, San Jose, CA), IL-5, IL-13 (DY405, DY413, R&D systems, Minneapolis, MN), IL-17 (BMS2017, Thermofisher scientific, Waltham MA), IFN-7 (555142, BD Biosciences, San Jose, CA), IL-1, IL-6, TNF (ab210895, ab213749 and ab212073, Abcam, Cambridge MA) were used as antibodies pairs and capture signals were amplified using Streptavidin-horseradish peroxidase conjugate (51-9002813, BD Biosciences, San Jose, CA). The plate was further developed using TMB substrate solution (N301, Thermofisher scientific, Waltham MA) and detected at the absorbance wavelength of 450 nm.
Total lung cells isolated above were stained with Live/Dead Fix Blue (L34961, Thermofisher scientific, Waltham MA), CD45, CD3, CD4 (103122, 100222, 100412, Biolegend, San Diego, CA). Cells were separated into 3 groups, then permeabilized and fixed using Transcription Factor Buffer Set (562574, BD Biosciences, San Jose, CA), and stained individually for T-bet, GATA3 or RORγt (561265, 560074, 562607, BD Biosciences, San Jose, CA). For megakaryocyte staining, total lung cells were stained with Live/Dead Fix Blue and CD41, CXCR4 (133927, 146507, Biolegend, San Diego, CA), Dkk-1 (BAM1765, R&D systems, Minneapolis, MN) and PE-streptavidin (405203, Biolegend, San Diego, CA). […]

Dkk-1 [3] = target: T1, Dkk-1; assay: Fungal experimental asthma due to Aspergillus niger, Dkk-1 antagonist IN or IP; type: in vivo, C57BL/6 mice
Method: C57BL/6 mice (4-6 weeks old) were challenged every second day with 400,000 viable conidia of AN while at the same time receiving a Dkk-1 antagonist (WAY262611) intranasally (IN) or intraperitoneally (IP) for 14 days. Airway hyperresponsiveness as assessed by enhanced increases in respiratory system resistance in response to increasing doses of acetylcholine chloride injected intravenously were determined as compared to PBS control mice (blue line). […] Thus, regardless of the fungus used, either Candida albicans or A. niger as shown herein, Dkk-1 can induce AHR. Statistics: IP versus IN or AN lines: P<0.05.

Human platelets = assay: Dkk-1 release from human platelets stimulated overnight at 4° C. or 37° C.; type: cell-based; settings: overnight at both 4° C. and 37° C.; versus unstimulated platelets
Method: To investigate agents driving Dkk-1 release by platelets, human platelets were stimulated with lipopolysaccharide (LPS), thrombin, prothrombin (ProThrom), proteinase of Aspergillus melleus (PAM), or candidalysin (C. Lysin) overnight at 4° C. (FIG. 13A) or 37° C. (FIG. 13B). Unstimulated human platelets served as a control (platelets). Following stimulation, Dkk-1 concentration in the supernatant was quantified.

C57BL/6 mice [4] = assay: Recombinant mouse Dkk-1 i.p. in ece1Δ/Δ C. albicans-challenged mice; type: in vivo
Method: To confirm, synthetic mouse Dkk-1 was administered to mice challenged with ece1Δ/Δ C. albicans (FIG. 3A). […] Dkk-1 alone had no effect on any index of allergic airway disease when administered through the intraperitoneal route (data not shown). Thus, in some aspects, Dkk-1 may be an important mediator of lung Th2 cell responses (Chae et al., 2016b), and may be equally important for the generation of Th17 cell responses in the context of airway mycosis. These findings further confirm that Dkk-1 is essential for the control of C. albicans growth in the lung.
as §1, §2

[5] = ece1Δ/Δ C. albicans-challenged mice

Molecule: CCC(=O)O[C@]1(C(=O)SCF)[C@H](C)C[C@H]2[C@@H]3C[C@H](F)C4=CC(=O)C=C[C@]4(C)[C@@]3(F)[C@@H](O)C[C@@]21C [FP, fluticasone propionate]
- airway hyperresponsiveness (C57BL/6 mice [1]): exacerbate

Molecule: NCC1CCN(c2nccc(-c3ccc4ccccc4c3)n2)CC1 [WAY 262611]
- lung fungal burdens (Dkk-1 [2]; C. albicans-challenged mice): markedly elevated
- BALF eosinophilia (Dkk-1 [2]; C. albicans-challenged mice, 10 or 20 μg/kg i.p.): most notably reducing
- BALF inflammatory cell recruitment (Dkk-1 [2]; C. albicans-challenged mice, 10 or 20 μg/kg i.p., dose-dependent): progressively reduced
- secretion of type 2 cytokines (IL-4, IL-5, IL-13) from whole lung (Dkk-1 [2]; C. albicans-challenged mice, ELISA): suppression
- airway hyper-responsiveness (Dkk-1 [2]; C. albicans-challenged mice, inhibitor 10 or 20 μg/kg i.p., dose-dependent, 24 h after final challenge): progressively reduced
- secretion of IL-1β, IL-6 and TNF (Dkk-1 [2]; C. albicans-challenged mice, lung, ELISA): not significantly affected
- secretion of IL-17 (Dkk-1 [2]; C. albicans-challenged mice, whole lung, ELISA): inhibited
- recruitment to whole lung of GATA3+ Th2 and RORγt+ Th17 cells (Dkk-1 [2]; flow cytometry, correlated with inhibitor dose): decreased recruitment
- airway hyperresponsiveness (AHR) in fungal experimental asthma due to Aspergillus niger (Dkk-1 [3]; FIG. 16 legend, route not stated): abrogates
- AHR induced by AN (Dkk-1 [3]; IP route (systemic), 14 days, P<0.05 versus IN or AN): abrogates

Molecule: thrombin
- Dkk-1 release by platelets (Human platelets): significantly increased

B1: Dkk-1: recombinant mouse Dkk-1 (5897-DK-010, R&D systems), Wnt pathway antagonist peptide (protein, UniProt O54908 32-272, looked up)
Dickkopf-related protein 1: TLNSVLINSNAIKNLPPPLGGAGGQPGSAVSVAPGVLYEGGNKYQTLDNYQPYPCAEDEECGSDEYCSSPSRGAAGVGGVQICLACRKRRKRCMRHAMCCPGNYCKNGICMPSDHSHFPRGEIEESIIENLGNDHNAAAGDGYPRRTTLTSKIYHTKGQEGSVCLRSSDCAAGLCCARHFWSKICKPVLKEGQVCTKHKRKGSHGLEIFQRCYCGEGLACRIQKDHHQASNSSRLHTCQRH
- any index of allergic airway disease (C57BL/6 mice [4]; Dkk-1 alone, intraperitoneal route, data not shown): no effect
- fungal lung burdens (C57BL/6 mice [4]; [5]): significantly reduced
- recruitment of inflammatory cells, especially eosinophils, to the airways (C57BL/6 mice [4]; [5]): markedly enhanced
- recruitment to lung of GATA3+ Th2 and RORγt+ Th17 cells (C57BL/6 mice [4]; [5]): markedly increase
- secretion of innate pro-inflammatory cytokines (C57BL/6 mice [4]; [5]): did not influence
- secretion of lung Th2 cytokines, especially IL-4, but also IL-17 (C57BL/6 mice [4]; [5]): markedly enhanced
- airway hyper-responsiveness (C57BL/6 mice [4]; ece1Δ/Δ C. albicans-challenged mice, 5 μg/kg i.p.): significantly enhanced

Source: US20240350491A1, “METHODS AND COMPOSITIONS FOR IMMUNE CONTROL THROUGH DICKKOPF-1” (Baylor College of Medicine, priority 2021, published 2024)
